Data: paper PMC9696974 (Pharmaceutics, 2022)

Experiments:
A549 cells [1] = assay: Cell size (FSC) and complexity (SSC) by flow cytometry; assay type: cell-based, human; details: A549, 10 µM, UV irradiation
Description: To corroborate further the observed phenomena, we determined morphology changes in 2M-, 1-, and 1M-treated A549 cells after exposing them to UV light. Morphology changes were determined by flow cytometry, which allows the assessment of cell size (FSC) and complexity (SSC). […] This increase was the most pronounced in cells treated with 1 and 1M.

A549 cells [2] = assay: Detection of total ROS (DCF, flow cytometry); assay type: cell-based, human; details: A549, 10 µM
Description: Detection of total ROS. For detecting total ROS, A549 cells were seeded in 12-well tissue culture plates and 24 h after were treated with a 10 μM working solution of the respective compound and incubated for 90 min (37 °C, 5% CO2), allowing the compound to enter to cells. The same dilution of DMSO served as a control, while H2O2 (0.002%) was used as a positive control. One plate was irradiated with UV light (350 nm) for 5 min, and was analysed immediately after UV exposure. The plate that was not irradiated with UV light served as the control, and was incubated in the cell incubator (37°C, 5% CO2) during the whole experiment. Subsequently, cells were washed with PBS, trypsinised, resuspended with cold PBS supplemented with 10% FBS and centrifuged for 5 min (RT, 1100 g). Cell pellets were resuspended and washed again, but this time with cold PBS supplemented with 1% FBS and centrifuged for 5 min (RT, 1100 g). After the second washing, cell pellets were resuspended in 5 μM 2′,7′–dichloro-fluorescin diacetate (H2DCFDA, Sigma, USA) which is converted to dichlorofluorescein (DCF) in contact with ROS. Unstained cells were resuspended in PBS supplemented with 1% FBS. Cells were then analysed by flow cytometry using FACSCalibur (BD Biosciences, San Jose, CA, USA).

BSA = BSA (Bos taurus, UniProt P02769); assay: Fluorimetric titration with BSA, Scatchard equation; assay type: binding, bovine; details: I = 0.05 M; for Kd: pH 7, sodium cacodylate buffer, read-out: Binding constant logKs BSA (converted)
Description: (§1) Experiments were conducted in an aqueous buffer solution (pH = 7.0 or pH= 5.0, I = 0.05 M, sodium cacodylate buffer). For the UV-Vis spectra were used Varian Cary 100 Bio spectrometer, for fluorescence spectra we used the Varian Cary Eclipse fluorimeter and for CD spectra we used the JASCO J815 spectropolarimeter, all conducted at 25.0 °C using appropriate quartz cuvettes (path length: 1 cm).
As the pharmacokinetic properties of small molecules often depend on a binding affinity toward transport proteins (such as serum albumin), we performed fluorimetric titrations with BSA. The emission of both 1M and 2M (Supplementary Information, Figures S15 and S16), was strongly quenched, with compound 2M showing a lower affinity in comparison to ds-DNA/RNA, while the affinity of 1M was similar to that towards ds-DNA/RNA (Table 2).
(§2) Processing of fluorimetric titrations by means of the Scatchard equation [56, 57] yielded binding constants (Table 2). […] Affinities of 1 and 2 toward BSA were the same at both pH values, supporting the conclusion that neutral forms of 1 and 2 were bound.

A549 cells [3] = assay: MTT cell viability assay, A549, with or without UV light; assay type: cell-based, human; details: for Ratio of IC50 non-irradiated vs UV-irradiated: A549; for Cytotoxic effect: A549, 10 μM and 1 μM, without UV; for Cytotoxic effect / IC50: MTT; for IC50: Homo sapiens, light or radiation study, 72 h
Description: Cells. Commercially available from American Type Culture Collection (ATCC), human epithelial lung adenocarcinoma A549 (ATCC® CCL-185™) and human normal lung fibroblast WI-38 (ATCC® CCL-75™) were grown according to supplier’s conditions, namely in Dulbecco Modified Eagle’s Medium (DMEM, Sigma Aldrich, St. Louis, MO, USA) supplemented with 10% of fetal bovine serum (FBS, Sigma Aldrich, USA). Cells were incubated in the cell incubator (Thermo Fischer Scientific, Waltham, MA, USA) at 37 °C and 5% CO2 in a humidified atmosphere.
Cell viability assay. In order to obtain a 10 mM stock solution chemical compounds (2M, 1, and 1M) were sterilely diluted in an appropriate volume of dimethyl sulfoxide solution (DMSO, Gram-Mol, Zagreb, Croatia). Solutions were kept in the dark and stored at 4 °C. The cytotoxic effects of each compound were assayed on A549 and WI-38 cells. […] Briefly, cells were seeded in 96-well tissue culture plates and 24 h later treated with 2M, 1, or 1M in the concentration range of 10–0.1 μM. Cells treated with the same dilutions of DMSO represented the control, while cells treated only with DMEM (10% FBS) represented the negative control. After 72 h, the media was removed, MTT solution was added into each well, and the plate was incubated (37 °C, 5% CO2) for 3 h. The resulting MTT-formazan products were dissolved using DMSO, and their absorbance at 600 nm was measured using a microplate reader.
For determining the effect of UV exposure, cells were seeded on two plates and treated with working solutions of the respective compounds as previously described. Plates were incubated (37 °C, 5% CO2) for 90 min, allowing the compounds to enter the cells. Then, one plate was exposed to UV light (Luzchem reactor, 350 nm, 8 lamps, in total 8 W, dose 50.6 mWm^−2; ~18 cm lamp to cell-plate) for 5 min, 3 days in a row at the same time each day, while the other plate was left in the cell incubator in the dark and served as a control.

ct-DNA = assay: Fluorimetric titration with ct-DNA, Scatchard equation; assay type: binding, calf; design: key: The changes were too small to allow an accurate calculation of the binding constant; details: I = 0.05 M
Description: as §1
Polynucleotides were purchased as noted: poly dAdT-poly dAdT, poly dGdC-poly dGdC, poly A-poly U (ds-RNA), (Sigma-Aldrich, Schnelldorf, Germany), calf thymus (ct)-DNA (Sigma-Aldrich, Schnelldorf, Germany) and dissolved in sodium cacodylate buffer, I = 0.05 M, pH = 7.0. The ct-DNA was sonicated and filtered through a 0.45 µm filter to obtain mostly short (ca. 100 base pairs) rod-like B-helical DNA fragments. The concentration of DNA or RNA was determined spectroscopically as the c(nucleobase) using producer-provided molar extinction coefficients.
Fortunately, strong emission from the compounds studied allowed fluorimetric titrations to be performed at much lower concentrations of the dyes (c = 5 × 10^−8 M), thus preventing precipitation of non-methylated 1 or 2, and allowing for the collection of numerous data points at excess of DNA/RNA binding sites over c(dye). […] Intriguingly, mixed sequence ct-DNA caused emission quenching of 1M at an excess of dye over ct-DNA (r > 0.1), and such quenching could be attributed to aggregation of 1M along DNA, while at an excess of ct-DNA over dye (r << 0.1), emission increased. The emission of 2M was indiscriminately quenched by all ds-DNA/RNA (Figure 2d).
as §2

[4] = A549, UV-irradiated (350 nm, 5 min, 3 days in a row)

Chain of BSA (P02769 25-607): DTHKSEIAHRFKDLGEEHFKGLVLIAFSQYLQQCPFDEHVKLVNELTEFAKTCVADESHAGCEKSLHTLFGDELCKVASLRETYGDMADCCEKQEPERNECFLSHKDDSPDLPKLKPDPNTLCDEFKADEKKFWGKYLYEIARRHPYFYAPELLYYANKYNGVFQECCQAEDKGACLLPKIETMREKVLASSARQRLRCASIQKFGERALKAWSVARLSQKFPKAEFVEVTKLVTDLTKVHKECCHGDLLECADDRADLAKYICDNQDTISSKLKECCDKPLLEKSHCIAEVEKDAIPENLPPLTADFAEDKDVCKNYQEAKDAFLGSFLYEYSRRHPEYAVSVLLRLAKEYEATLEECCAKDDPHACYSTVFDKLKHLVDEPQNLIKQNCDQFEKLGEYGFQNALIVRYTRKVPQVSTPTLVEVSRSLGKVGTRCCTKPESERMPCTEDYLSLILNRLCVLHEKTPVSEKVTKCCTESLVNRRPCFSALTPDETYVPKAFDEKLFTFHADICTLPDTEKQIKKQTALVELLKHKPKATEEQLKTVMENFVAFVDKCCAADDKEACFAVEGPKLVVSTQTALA

| Structure (SMILES) | Cell size (FSC) (A549 cells [1]) | Intracellular ROS production (A549 cells [2]; UV light 350 nm 5 min) | Intracellular ROS production (A549 cells [2]; kept in dark) | Kd (BSA) | Ratio of IC50 non-irradiated vs UV-irradiated (A549 cells [3]) | Cytotoxic effect (A549 cells [3]) | IC50 (A549 cells [3]; [4]) | IC50 (A549 cells [3]; A549, non-irradiated) | Binding constant logKs ct-DNA (ct-DNA; pH 7, sodium cacodylate buffer) | Binding constant logKs BSA (BSA; pH 5, sodium cacodylate buffer) | Binding constant logKs ct-DNA (ct-DNA; pH 5, sodium cacodylate buffer) |
| --- | --- | --- | --- | --- | --- | --- | --- | --- | --- | --- | --- |
| C[n+]1ccc(-c2cc3ccc4cccc5ccc(c2)c3c45)cc1 [1M, 2-para-N-methylpyridinium pyrene] | increase in cell size | immediate and strong increase in ROS production | induced the production of intracellular ROS | 3980 nM | 15 | considerable cytotoxic effects | 100 nM | 1500 nM | 5.5 |  |  |
| C[n+]1ccc(-c2cc3ccc4cc(-c5cc[n+](C)cc5)cc5ccc(c2)c3c45)cc1 [2M] | increase in cell size | immediate and strong increase in ROS production |  | 126 nM | four times | considerable cytotoxic effects | 2000 nM | 8000 nM | 8.8 |  |  |
| c1cc2ccc3cc(-c4ccncc4)cc4ccc(c1)c2c34 [compound 1] | increase in cell size | immediate and strong increase in ROS production |  | 3160 nM | four times | considerable cytotoxic effects | 2000 nM | 8000 nM | b | 5.5 | 5.3 |
